Data taken from patent US6368788B1 (priority 1987, dated 2002).

Columns and labels:
[1] = Drug allergies to antibiotics; parameters: species or system human; details: in vivo
Method: L-Glu-L-Trp was administered to 76 patients having clinical histones of allergies to antibiotics, during the period of administration of the antibiotic. A control group consisted of 43 patients with similar antibiotic drug allergies. L-Glu-L-Trp was administered im on a daily basis for 5-10 days at a dosage of 100 μg, or alternatively, intranasally at a dosage of 1 μg/kg over the same 5-10 day period. […] Allergic reactions were pronounced in the control group with signs of drug intolerance.

hepatitis B = experiment: Children with chronic persistent hepatitis B; assay type: in vivo, human; parameters: T-Lymphocytes (E-RFC): unit not given here
Method: In accord with a USSR Ministry of Health decision 125 children suffering with chronic persistent hepatitis B were entered into this trial over a two month period. Group 1 consisted of 35 children who received decaris immunomodulatory therapy; Group 2, 38 children who received thymalin treatments; Group 3, […] who received L-Glu-L-Trp; and, Group 4, 32 children who received only conventional symptom specific therapy.
L-Glu-L-Trp was administered at a dose of 2 μg/kg of body mass, im, daily for […], and a repeat (identical) course of treatment was administered 10 days after termination of the first course.

[2] = Chronic primary gastritis and gastro-duodenitis; assay type: in vivo, human
Text: Twenty two patients (all men aged 18-30 years) suffering from chronic primary gastritis and gastro-duodenitis were entered into the trial. Diagnosis was based on physical examination, and clinical and laboratory investigations including roentgenoscopy and endoscopic examination of the stomach and duodenum. Patient entry criteria was further conditioned on the results of laboratory tests for i) pre-treatment immune indices (i.e., numbers of lymphocytes, T-, and B-lymphocytes, etc.; TABLE 46) and ii) the in vitro sheep red blood cell rosette forming response of T-lymphocytes to L-Glu-L-Trp, (i.e., whether in vitro incubation of patient peripheral blood lymphocytes with L-Glu-L-Trp increased the percentage of E-RFC). […] These twelve patients were entered into the trial.
For determining normal values, the control group consisted of 28 normal healthy volunteers aged 17-23.
Patients received L-Glu-L-Trp im daily at a dosage of 100 μg for 5 days in combination with their conventional ongoing treatment.

[3] = Acute osteomyelitis in adolescents (Protocol D); assay type: in vivo, human
Method: In 29 adolescents with osteomyelitis, 2 μg/kg L-Glu-L-Trp was administered im daily on each of 3-7 consecutive days, depending upon the severity of the infection. The control group consisted of 13 children who received conventional therapy with antibiotics.

Sarcoma 180 tumor = experiment: Sarcoma 180 bilateral tumor size; assay type: in vivo, Swiss-Webster mice; details: for Mean Tumor Weight Left / Mean Tumor Weight Right: mean leg weight treated - normal control
Method: Anti-tumor activity of L-Glu-L-Trp was evaluated using the murine Sarcoma 180 tumor (ATCC CCL-8 CCRF S-180 II) injected at 2×10^6 cells/0.1 mL im into each rear flank of Swiss-Webster mice. Groups consisted of 10 animals. L-Glu-L-Trp was administered in a single 0.1 mL dose of either 10 μg/kg, 75 μg/kg, 250 μg/kg or 1000 μg/kg. Tumor size was evaluated by surgically removing and weighing the affected limbs, and comparing the weight with the weight of normal control (non-tumor) limbs. The first prophylactic drug regimen (PDR-1) consisted of 5 consecutive daily ip injections commencing on day -5 and ending of day -1. The second prophylactic drug regimen (PDR-2) consisted of 5 consecutive daily im injections to the left rear flank (tumor site) beginning on day -5 and ending on day -1. Sarcoma 180 cells were injected im on day 0. Saline 0.1 mL served as the negative control.

[4] = Non-Responders, After L-Glu-L-Trp (n = 7)
[5] = Responders, L-Glu-L-Trp Therapy (n = 12)
[6] = After L-Glu-L-Trp Combination Therapy

## L-Glu-L-Trp
[1]
  Patients in whom development of allergic reactions was prevented: 70%
Hepatitis B; Group 1, Pre-Treatment ALCT Activity None
  Percent of Subjects Disease Free at 6 Months After Treatment: 100%
Hepatitis B; Group 2, Pre-Treatment ALCT Activity Moderate
  Percent of Subjects Disease Free at 6 Months After Treatment: 80%
Hepatitis B; Group 3, Pre-Treatment ALCT Activity High
  Percent of Subjects Disease Free at 6 Months After Treatment: 0%
Hepatitis B; [4]
  ALCT Cytotoxic Index: 44.55 ± 6.8
  ALCT: % of subjects: 57.14 ± 18.7%
  Ratio OKT4^+/OKT8^+: 0.82 ± 0.07
  T-Lymphocytes (E-RFC): 1382 ± 76 ×10^9
  T-Lymphocytes (E-RFC) % Normal Value: (85%)
  T-Lymphocytes (E-RFC) % of PBL: 56.7 ± 3.24 % of PBL
Hepatitis B; [5]
  ALCT Cytotoxic Index: 50.4 ± 5.5
  ALCT: % of subjects: 16.7 ± 13.2%
  Ratio OKT4^+/OKT8^+: 1.08 ± 0.07
  T-Lymphocytes (E-RFC): 1227 ± 65 ×10^9
  T-Lymphocytes (E-RFC) % Normal Value: (76%)
  T-Lymphocytes (E-RFC) % of PBL: 47.33 ± 2.2 % of PBL
Hepatitis B; highest ALCT levels
  Stable remission over 6 months: 0%
Hepatitis B; in vivo
  Patients with increased E-RFC T-lymphocytes and ADCC decreased to normal (responders): about 63%
Hepatitis B; moderate ALCT activity
  Stable remission over 6 months: 80%
Hepatitis B; patients lacking demonstrable ALCT
  Stable remission over 6 months: One hundred percent
[2]; [6]
  B-Lymphocytes: 0.14 ± 0.02 ×10^9/L
  B-Lymphocytes % Normal Value: (97%)
  B-Lymphocytes (%): 7.2 ± 1.5%
  Null Lymphocytes: 0.9 ± 0.05 ×10^9/L
  Null Lymphocytes % Normal Value: (145%)
  Null Lymphocytes (%): 37.3 ± 2.0 %
  T-Lymphocytes: 1.04 ± 0.04 ×10^9/L
  T-Lymphocytes % Normal Value: (96%)
  T-Lymphocytes (%): 55.4 ± 2.1 %
[2]; in vivo
  Clinical outcome: more rapid recovery
[3]; 1 of 29
  Failure rate (wounds failed to heal): 3%
[3]; in vivo
  T-cell counts: nearly doubled
  Wounds closed with healing earlier than control group: 2 to 3 days
[3]; on the average
  Fevers resolved sooner: 1 to 2 days
Sarcoma 180 tumor; PDR-1 ip, 10 μg/kg
  Percent of Control Tumor Weight Left: 120%
  Mean Tumor Weight Left: 3.0
  Mean Tumor Weight Right: 2.9
Sarcoma 180 tumor; PDR-1 ip, 75 μg/kg
  Percent of Control Tumor Weight Left: 120%
  Mean Tumor Weight Left: 3.0
  Percent of Control Tumor Weight Right: 130%
  Mean Tumor Weight Right: 3.0
Sarcoma 180 tumor; PDR-1 ip, 250 μg/kg
  Percent of Control Tumor Weight Left: 92%
  Mean Tumor Weight Left: 2.3
  Percent of Control Tumor Weight Right: 83%
  Mean Tumor Weight Right: 1.9
Sarcoma 180 tumor; PDR-1 ip, 1000 μg/kg
  Percent of Control Tumor Weight Left: 52%
  Mean Tumor Weight Left: 1.3
  Percent of Control Tumor Weight Right: 43%
  Mean Tumor Weight Right: 1.0
Sarcoma 180 tumor; PDR-2 im, 10 μg/kg
  Percent of Control Tumor Weight Left: 96%
  Mean Tumor Weight Left: 2.4
  Mean Tumor Weight Right: 2.6
Sarcoma 180 tumor; PDR-2 im, 75 μg/kg
  Percent of Control Tumor Weight Left: 96%
  Mean Tumor Weight Left: 2.4
  Percent of Control Tumor Weight Right: 132%
  Mean Tumor Weight Right: 3.3
Sarcoma 180 tumor; PDR-2 im, 250 μg/kg
  Percent of Control Tumor Weight Left: 72%
  Mean Tumor Weight Left: 1.8
  Percent of Control Tumor Weight Right: 48%
  Mean Tumor Weight Right: 1.1
Sarcoma 180 tumor; PDR-2 im, 1000 μg/kg
  Percent of Control Tumor Weight Left: 48%
  Mean Tumor Weight Left: 1.2
  Percent of Control Tumor Weight Right: 57%
  Mean Tumor Weight Right: 1.3
Sarcoma 180 tumor; prophylactic ip or im, 250 μg/kg and 1000 μg/kg
  Tumor growth: inhibited subsequent im tumor growth
